Experiments:
Format in all cases: functional
Leishmania tropica [1] = assay: Growth inhibition of wild type Leishmania tropica LRC at 7 uM after 72 hrs by MTT assay relative to control; conditions: read-out: GI
Leishmania tropica [2] = assay: Growth inhibition of wild type Leishmania tropica LRC at 3 uM after 72 hrs by MTT assay relative to control; conditions: read-out: GI
Leishmania tropica [3] = assay: Growth inhibition of wild type Leishmania tropica LRC at 1 uM after 72 hrs by MTT assay relative to control; conditions: read-out: GI
Leishmania tropica [4] = assay: Growth inhibition of multidrug resistant Leishmania tropica at 7 uM in presence of 150 uM daunomycin after 72 hrs by MTT assay relative to control
Leishmania tropica [5] = assay: Growth inhibition of multidrug resistant Leishmania tropica at 15 uM in presence of 150 uM daunomycin after 72 hrs by MTT assay relative to control
Leishmania tropica [6] = assay: Growth inhibition of wild type Leishmania tropica LRC at 15 uM after 72 hrs by MTT assay relative to control; conditions: read-out: GI
Leishmania tropica [7] = assay: Growth inhibition of multidrug resistant Leishmania tropica at 1 uM in presence of 150 uM daunomycin after 72 hrs by MTT assay relative to control
Leishmania tropica [8] = assay: Growth inhibition of multidrug resistant Leishmania tropica at 3 uM in presence of 150 uM daunomycin after 72 hrs by MTT assay relative to control

Structure (SMILES)	inhibition of growth at 7 µM (Leishmania tropica [1]) [%]	inhibition of growth at 3 µM (Leishmania tropica [2]) [%]	inhibition of growth at 1 µM (Leishmania tropica [3]) [%]	growth inhibition (GI) (Leishmania tropica [4]) [%]	growth inhibition (GI) (Leishmania tropica [5]) [%]	inhibition of growth at 15 µM (Leishmania tropica [6]) [%]	growth inhibition (GI) (Leishmania tropica [7]) [%]	growth inhibition (GI) (Leishmania tropica [8]) [%]
CC(=O)O[C@@H]1[C@@H]2[C@@H](OC(=O)c3cccnc3)[C@]3(OC2(C)C)[C@H](C)CC[C@H](OC(=O)c2ccccc2)[C@@]3(C)[C@@H]1OC(=O)c1ccccc1	0.8	0	0	59.2	96.1	2.3	8.6	21.2
CC(=O)O[C@@H]1[C@@H]2[C@@H](OC(=O)c3cccnc3)[C@@]3(OC2(C)C)[C@@](C)([C@@H](OC(=O)c2ccccc2)CC[C@@]3(C)O)[C@@H]1OC(=O)c1ccccc1	0	0	0	90.2	98.5	13.6	15.8	62.8
